The values that follow come from patent US11173151B2, “Substituted triazole derivatives and uses thereof” (BAYER AKTIENGESELLSCHAFT, priority 2017, dated 2021).

One experiment deals with T1, human V1a receptor (Homo sapiens, UniProt P37288).
T1 construct: expressed in transfected cells; host or cells: CHO K1 (ATCC), also stably transfected with a modified aequorin
Kind of experiment: Cellular in vitro assay for determining vasopressin receptor activity, V1a receptor cell line (CHO, aequorin luminescence). The format is cell-based. To be noted: for IC50: CHO cell line transfected with human V1a receptor, [Arg]-vasopressin at EC50 concentration, read-out: IC50 hV1a; for ratio IC50 hV2/hV1a: selectivity ratio IC50 hV2 / IC50 hV1a. The essentials: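 Luminescence from reconstituted aequorin, reporting intracellular calcium release, was measured immediately after adding [Arg]-vasopressin at EC50 concentration to CHO K1 cells pretreated 10 minutes with graded compound concentrations. Inhibition gave IC50 values.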

The target of the next experiment is T2, human V2 receptor (Homo sapiens, UniProt P30518).
T2 construct: expressed in transfected cells; host or cells: CHO K1 (ATCC) expressing firefly luciferase under a CRE-responsive promoter
T2 sequence (P30518 whole entry): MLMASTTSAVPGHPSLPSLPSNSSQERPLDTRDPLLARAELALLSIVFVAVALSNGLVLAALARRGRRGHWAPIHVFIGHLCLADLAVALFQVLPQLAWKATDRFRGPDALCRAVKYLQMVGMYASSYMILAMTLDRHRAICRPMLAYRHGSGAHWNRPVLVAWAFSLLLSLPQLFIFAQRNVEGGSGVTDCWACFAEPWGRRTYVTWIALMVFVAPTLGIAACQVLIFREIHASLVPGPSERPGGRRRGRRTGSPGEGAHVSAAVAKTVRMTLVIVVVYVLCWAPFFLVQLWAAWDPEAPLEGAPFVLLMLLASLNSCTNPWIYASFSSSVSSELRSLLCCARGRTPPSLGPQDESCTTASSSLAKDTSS
Kind of experiment: Cellular in vitro assay for determining vasopressin receptor activity, V2 receptor cell line (CHO, CRE-luciferase). Format: cell-based. To be noted: CHO cell line transfected with human V2 receptor; [Arg8]-vasopressin at EC50 concentration, 3 hours; read-out: IC50 hV2.

T1 sequence (P37288 whole entry): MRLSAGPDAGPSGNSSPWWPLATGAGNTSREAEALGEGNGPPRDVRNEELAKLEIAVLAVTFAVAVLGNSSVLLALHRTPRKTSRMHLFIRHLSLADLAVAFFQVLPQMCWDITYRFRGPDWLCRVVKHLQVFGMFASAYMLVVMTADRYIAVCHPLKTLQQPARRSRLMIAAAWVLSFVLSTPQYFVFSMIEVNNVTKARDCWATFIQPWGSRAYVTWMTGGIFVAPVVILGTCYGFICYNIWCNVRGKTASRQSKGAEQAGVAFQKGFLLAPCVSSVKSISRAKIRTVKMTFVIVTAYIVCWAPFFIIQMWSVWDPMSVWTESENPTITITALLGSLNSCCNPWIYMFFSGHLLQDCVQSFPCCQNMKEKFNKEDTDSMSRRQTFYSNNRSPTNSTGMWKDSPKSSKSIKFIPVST

As usually defined, the IC50 is the point on the concentration scale where inhibition reaches its midpoint. In the case of `O=C(NCC1CC1)c1cccc(Cl)c1-n1cnc(Cn2nc(-c3ccc(Cl)cc3)n(C[C@H](O)C(F)(F)F)c2=O)n1` [Example 370, 3-Chloro-2-[3-({3-(4-chlorophenyl)-5-oxo-4-[(2S)-3,3,3-trifluoro-2-hydroxypropyl]-4,5-dihydro-1H-1,2,4-triazol-1-yl}methyl)-1H-1,2,4-triazol-1-yl]-N-(cyclopropylmethyl)benzamide], the IC50 at human V1a receptor came out at 33 nM; at human V2 receptor it was 420 nM. Also, the “ratio IC50 hV2/hV1a” value on human V1a receptor was found to be 12.7.

On to `NC(=O)[C@@H]1CC(F)(F)CN1C(=O)c1cccc(Cl)c1-n1cnc(Cn2nc(-c3ccc(Cl)cc3)n(C[C@H](O)C(F)(F)F)c2=O)n1` [Example 372, 1-{3-Chloro-2-[3-({3-(4-chlorophenyl)-5-oxo-4-[(2S)-3,3,3-trifluoro-2-hydroxypropyl]-4,5-dihydro-1H-1,2,4-triazol-1-yl}methyl)-1H-1,2,4-triazol-1-yl]benzoyl}-4,4-difluoro-L-prolinamide], for which the results for the half-inhibitory concentration (IC50) at human V1a receptor and on human V2 receptor were 52.5 nM and 3400 nM, respectively. The “ratio IC50 hV2/hV1a” value on human V1a receptor is given as 64.8.

For the compound `O=C(NC1CC1F)c1cccc(Cl)c1-n1cnc(Cn2nc(-c3ccc(Cl)cc3)n(C[C@H](O)C(F)(F)F)c2=O)n1` (stereo partly drawn) [Example 373, 3-Chloro-2-[3-({3-(4-chlorophenyl)-5-oxo-4-[(2S)-3,3,3-trifluoro-2-hydroxypropyl]-4,5-dihydro-1H-1,2,4-triazol-1-yl}methyl)-1H-1,2,4-triazol-1-yl]-N-[2-fluorocyclopropyl]benzamide], at human V1a receptor, the IC50 stood at 4.75 nM and the “ratio IC50 hV2/hV1a” value is on record as 216.8. Also, on human V2 receptor, the half-maximal inhibitory concentration (IC50) was determined as 1030 nM.

For `O=C(c1cccc(Cl)c1-n1cnc(Cn2nc(-c3ccc(Cl)cc3)n(C[C@H](O)C(F)(F)F)c2=O)n1)N1CCC(F)(F)C1` [Example 374, 2-[(1-{2-Chloro-6-[(3,3-difluoropyrrolidin-1-yl)carbonyl]phenyl}-1H-1,2,4-triazol-3-yl)methyl]-5-(4-chlorophenyl)-4-[(2S)-3,3,3-trifluoro-2-hydroxypropyl]-2,4-dihydro-3H-1,2,4-triazol-3-one], the half-maximal inhibitory concentration (IC50) at human V1a receptor turned out to be 47.5 nM; at human V2 receptor it was 1450 nM. Also, the “ratio IC50 hV2/hV1a” value on human V1a receptor was determined as 30.5.

Turning to `CC1(C)CN(C(=O)c2cccc(Cl)c2-n2cnc(Cn3nc(-c4ccc(Cl)cc4)n(C[C@H](O)C(F)(F)F)c3=O)n2)CCO1` [Example 375, 2-[(1-{2-Chloro-6-[(2,2-dimethylmorpholin-4-yl)carbonyl]phenyl}-1H-1,2,4-triazol-3-yl)methyl]-5-(4-chlorophenyl)-4-[(2S)-3,3,3-trifluoro-2-hydroxypropyl]-2,4-dihydro-3H-1,2,4-triazol-3-one], at human V1a receptor, the IC50 amounted to 710 nM and the “ratio IC50 hV2/hV1a” value came out at 29.6. Also, the IC50 at human V2 receptor was found to be 21000 nM.

As for `O=C(NC1CC(F)(F)C1)c1cccc(Cl)c1-n1cnc(Cn2nc(-c3ccc(Cl)cc3)n(C[C@H](O)C(F)(F)F)c2=O)n1` [Example 376, 3-Chloro-2-[3-({3-(4-chlorophenyl)-5-oxo-4-[(2S)-3,3,3-trifluoro-2-hydroxypropyl]-4,5-dihydro-1H-1,2,4-triazol-1-yl}methyl)-1H-1,2,4-triazol-1-yl]-N-(3,3-difluorocyclobutyl)benzamide], at human V1a receptor, the IC50 was 73.5 nM and the “ratio IC50 hV2/hV1a” value is on record as 7.8. For the same compound, the concentration for half-maximal inhibition (IC50) on human V2 receptor is 570 nM.

On to `O=C(c1cccc(Cl)c1-n1cnc(Cn2nc(-c3ccc(Cl)cc3)n(C[C@H](O)C(F)(F)F)c2=O)n1)N1CCCCC1` [Example 381, 5-(4-Chlorophenyl)-2-({1-[2-chloro-6-(piperidin-1-ylcarbonyl)phenyl]-1H-1,2,4-triazol-3-yl}methyl)-4-[(2S)-3,3,3-trifluoro-2-hydroxypropyl]-2,4-dihydro-3H-1,2,4-triazol-3-one], for which, at human V1a receptor, the concentration for half-maximal inhibition (IC50) is 17 nM and the “ratio IC50 hV2/hV1a” value was determined as 132.4. Moreover, the IC50 on human V2 receptor stood at 2250 nM.

For `O=C(c1cccc(Cl)c1-n1cnc(Cn2nc(-c3ccc(Cl)cc3)n(C[C@H](O)C(F)(F)F)c2=O)n1)N1CCOCC1` [Example 382, 2-({1-[2-Chloro-6-(morpholin-4-ylcarbonyl)phenyl]-1H-1,2,4-triazol-3-yl}methyl)-5-(4-chlorophenyl)-4-[(2S)-3,3,3-trifluoro-2-hydroxypropyl]-2,4-dihydro-3H-1,2,4-triazol-3-one], at human V1a receptor, the 50% inhibitory concentration (IC50) is 78 nM and the “ratio IC50 hV2/hV1a” value is listed as 80.1. In addition, on human V2 receptor, the IC50 was 6250 nM.

For the compound `O=C(c1cccc(Cl)c1-n1cnc(Cn2nc(-c3ccc(Cl)cc3)n(C[C@H](O)C(F)(F)F)c2=O)n1)N1CCC[C@H]1C(F)(F)F` [Example 383, 5-(4-Chlorophenyl)-2-{[1-(2-chloro-6-{[(2S)-2-(trifluoromethyl)pyrrolidin-1-yl]carbonyl}phenyl)-1H-1,2,4-triazol-3-yl]methyl}-4-[(2S)-3,3,3-trifluoro-2-hydroxypropyl]-2,4-dihydro-3H-1,2,4-triazol-3-one], the concentration for half-maximal inhibition (IC50) on human V1a receptor is 435 nM; at human V2 receptor, 7750 nM. In addition, at human V1a receptor, the “ratio IC50 hV2/hV1a” value is reported as 17.8.

For the compound `O=C(c1cccc(Cl)c1-n1cnc(Cn2nc(-c3ccc(Cl)cc3)n(C[C@H](O)C(F)(F)F)c2=O)n1)N1CCC[C@@H]1C(F)(F)F` [Example 384, 5-(4-Chlorophenyl)-2-{[1-(2-chloro-6-{[(2R)-2-(trifluoromethyl)pyrrolidin-1-yl]carbonyl}phenyl)-1H-1,2,4-triazol-3-yl]methyl}-4-[(2S)-3,3,3-trifluoro-2-hydroxypropyl]-2,4-dihydro-3H-1,2,4-triazol-3-one], at human V1a receptor, the IC50 came to 111 nM and the “ratio IC50 hV2/hV1a” value was 17.9. Besides, the concentration for half-maximal inhibition (IC50) at human V2 receptor is 2000 nM.

In the case of `O=C(c1cccc(Cl)c1-n1cnc(Cn2nc(-c3ccc(Cl)cc3)n(C[C@H](O)C(F)(F)F)c2=O)n1)N1CCS(=O)(=O)CC1` [Example 385, 2-[(1-{2-Chloro-6-[(1,1-dioxidothiomorpholin-4-yl)carbonyl]phenyl}-1H-1,2,4-triazol-3-yl)methyl]-5-(4-chlorophenyl)-4-[(2S)-3,3,3-trifluoro-2-hydroxypropyl]-2,4-dihydro-3H-1,2,4-triazol-3-one], on human V1a receptor, the IC50 is 435 nM and the “ratio IC50 hV2/hV1a” value was 22.0. The 50% inhibitory concentration (IC50) on human V2 receptor came out at 9550 nM.

For the compound `CN(CC1CC1)C(=O)c1cccc(Cl)c1-n1cnc(Cn2nc(-c3ccc(Cl)cc3)n(C[C@H](O)C(F)(F)F)c2=O)n1` [Example 387, 3-Chloro-2-[3-({3-(4-chlorophenyl)-5-oxo-4-[(2S)-3,3,3-trifluoro-2-hydroxypropyl]-4,5-dihydro-1H-1,2,4-triazol-1-yl}methyl)-1H-1,2,4-triazol-1-yl]-N-(cyclopropylmethyl)-N-methylbenzamide], the figures for the IC50 at human V1a receptor and on human V2 receptor were 92.5 nM and 3400 nM, respectively. The “ratio IC50 hV2/hV1a” value at human V1a receptor was 36.8.

As to `CC1(NC(=O)c2cccc(Cl)c2-n2cnc(Cn3nc(-c4ccc(Cl)cc4)n(C[C@H](O)C(F)(F)F)c3=O)n2)CC1` [Example 388, 3-Chloro-2-[3-({3-(4-chlorophenyl)-5-oxo-4-[(2S)-3,3,3-trifluoro-2-hydroxypropyl]-4,5-dihydro-1H-1,2,4-triazol-1-yl}methyl)-1H-1,2,4-triazol-1-yl]-N-(1-methylcyclopropyl)benzamide], on human V1a receptor, the IC50 worked out at 7.15 nM and the “ratio IC50 hV2/hV1a” value is 216.8. Further, at human V2 receptor, the IC50 was found to be 1550 nM.

As to `NC(=O)[C@H]1CC(F)(F)CN1C(=O)c1cccc(Cl)c1-n1cnc(Cn2nc(-c3ccc(Cl)cc3)n(C[C@H](O)C(F)(F)F)c2=O)n1` [Example 391, 1-{3-Chloro-2-[3-({3-(4-chlorophenyl)-5-oxo-4-[(2S)-3,3,3-trifluoro-2-hydroxypropyl]-4,5-dihydro-1H-1,2,4-triazol-1-yl}methyl)-1H-1,2,4-triazol-1-yl]benzoyl}-4,4-difluoro-D-prolinamide], the values for the concentration for half-maximal inhibition (IC50) on human V1a receptor and on human V2 receptor were 52 nM and 3400 nM, respectively. Moreover, the “ratio IC50 hV2/hV1a” value at human V1a receptor was found to be 65.4.

As for `O=C(NCCC(F)(F)F)c1cccc(Cl)c1-n1cnc(Cn2nc(-c3ccc(Cl)cc3)n(C[C@H](O)C(F)(F)F)c2=O)n1` [Example 392, 3-Chloro-2-[3-({3-(4-chlorophenyl)-5-oxo-4-[(2S)-3,3,3-trifluoro-2-hydroxypropyl]-4,5-dihydro-1H-1,2,4-triazol-1-yl}methyl)-1H-1,2,4-triazol-1-yl]-N-(3,3,3-trifluoropropyl)benzamide], on human V1a receptor, the IC50 came out at 22.5 nM and the “ratio IC50 hV2/hV1a” value turned out to be 12.4. Besides, on human V2 receptor, the IC50 was found to be 280 nM.

Regarding `O=C(NC1CC1)c1cccc(Cl)c1-n1cnc(Cn2nc(-c3ccc(Cl)cc3)n(C[C@@H](O)C(F)(F)F)c2=O)n1` [Example 393, 3-Chloro-2-[3-({3-(4-chlorophenyl)-5-oxo-4-[(2R)-3,3,3-trifluoro-2-hydroxypropyl]-4,5-dihydro-1H-1,2,4-triazol-1-yl}methyl)-1H-1,2,4-triazol-1-yl]-N-cyclopropylbenzamide], at human V1a receptor, the IC50 was found to be 16.5 nM and the “ratio IC50 hV2/hV1a” value was determined as 369.7. Further, the IC50 on human V2 receptor stood at 6100 nM.

For `O=C(NCC1CC1)c1cccc(Cl)c1-n1cnc(Cn2nc(-c3ccc(Cl)cc3)n(C[C@@H](O)C(F)(F)F)c2=O)n1` [Example 394, 3-Chloro-2-[3-({3-(4-chlorophenyl)-5-oxo-4-[(2R)-3,3,3-trifluoro-2-hydroxypropyl]-4,5-dihydro-1H-1,2,4-triazol-1-yl}methyl)-1H-1,2,4-triazol-1-yl]-N-(cyclopropylmethyl)benzamide], at human V1a receptor, the IC50 was 295 nM and the “ratio IC50 hV2/hV1a” value was found to be 14.9. Besides, the half-maximal inhibitory concentration (IC50) on human V2 receptor is 4400 nM.
